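Here, GI50 denotes the concentration required for 50% inhibition of growth. The concentration for full growth arrest is given as TGI.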
Columns and labels:
Assay in all cases: NCI tumour cell line growth inhibition, 384-well format
OVCAR-5 ovarian = system: OVCAR-5 ovarian
BT-549 breast = system: BT-549 breast
LOX IMVI melanoma = system: LOX IMVI melanoma
SNB-75 CNS = system: SNB-75 CNS
NCI/ADR-RES ovarian = system: NCI/ADR-RES ovarian
NCI-H23 lung = system: NCI-H23 lung
EKVX NSCLC = system: EKVX NSCLC
HT29 colon = system: HT29 colon
MCF7 breast = system: MCF7 breast
CCRF-CEM leukemia = system: CCRF-CEM leukemia
RPMI-8226 leukemia = system: RPMI-8226 leukemia
A498 renal = system: A498 renal
SF-268 CNS = system: SF-268 CNS
HL-60(TB) leukemia = system: HL-60(TB) leukemia
ACHN renal = system: ACHN renal
SF-295 CNS = system: SF-295 CNS
KM12 colon = system: KM12 colon
HS 578T breast = system: HS 578T breast
K-562 leukemia = system: K-562 leukemia
COLO 205 colon = system: COLO 205 colon
NCI-H322M lung = system: NCI-H322M lung
HOP-92 NSCLC = system: HOP-92 NSCLC
OVCAR-4 ovarian = system: OVCAR-4 ovarian
SNB-19 CNS = system: SNB-19 CNS
SK-MEL-28 melanoma = system: SK-MEL-28 melanoma
PC-3 prostate = system: PC-3 prostate
UO-31 renal = system: UO-31 renal
SF-539 CNS = system: SF-539 CNS

O=C1Nc2c(C(F)(F)F)cccc2[C@@]1(c1ccc(O)cc1)c1ccc(OC(F)(F)F)cc1 gave a GI50 (OVCAR-5 ovarian) of 50.3 nM, a TGI (OVCAR-5 ovarian) of 20400 nM and a GI50 (BT-549 breast) of less than 10 nM. For the same compound, the TGI (BT-549 breast) was less than 10 nM, the GI50 (LOX IMVI melanoma) was 11.8 nM and the TGI (LOX IMVI melanoma) was 26.3 nM. The GI50 (SNB-75 CNS) was less than 10 nM, the TGI (SNB-75 CNS) was less than 10 nM and the GI50 (NCI/ADR-RES ovarian) was less than 10 nM. For the same compound, the TGI (NCI/ADR-RES ovarian) was 22.8 nM, the GI50 (NCI-H23 lung) was less than 10 nM and the TGI (NCI-H23 lung) was 11.3 nM. It also gave a GI50 (EKVX NSCLC) of 17 nM, a TGI (EKVX NSCLC) of 55.1 nM and a GI50 (HT29 colon) of 12900 nM. The TGI (HT29 colon) was 25700 nM, the GI50 (MCF7 breast) was 12.1 nM and the TGI (MCF7 breast) was 62.2 nM. For the same compound, the GI50 (CCRF-CEM leukemia) was 12800 nM, the TGI (CCRF-CEM leukemia) was 25500 nM and the GI50 (RPMI-8226 leukemia) was 3030 nM. For the same compound, the TGI (RPMI-8226 leukemia) was 9540 nM, the GI50 (A498 renal) was 22 nM and the TGI (A498 renal) was 61.9 nM. It also gave a GI50 (SF-268 CNS) of 2010 nM, a TGI (SF-268 CNS) of 18100 nM and a GI50 (HL-60(TB) leukemia) of 2140 nM. It also gave a TGI (HL-60(TB) leukemia) of 3780 nM, a GI50 (ACHN renal) of 20.3 nM and a TGI (ACHN renal) of 47 nM. It also gave a GI50 (SF-295 CNS) of 21.2 nM, a TGI (SF-295 CNS) of 75.9 nM and a GI50 (KM12 colon) of 14.5 nM. The TGI (KM12 colon) was 1130 nM, the GI50 (HS 578T breast) was less than 10 nM and the TGI (HS 578T breast) was less than 10 nM. It also gave a GI50 (K-562 leukemia) of 974 nM, a TGI (K-562 leukemia) of 17700 nM and a GI50 (COLO 205 colon) of less than 10 nM. For the same compound, the TGI (COLO 205 colon) was less than 10 nM, the GI50 (NCI-H322M lung) was less than 10 nM and the TGI (NCI-H322M lung) was less than 10 nM. The GI50 (HOP-92 NSCLC) was 44.3 nM, the TGI (HOP-92 NSCLC) was 20600 nM and the GI50 (OVCAR-4 ovarian) was less than 10 nM. It also gave a TGI (OVCAR-4 ovarian) of less than 10 nM, a GI50 (SNB-19 CNS) of 13200 nM and a TGI (SNB-19 CNS) of 26000 nM. For the same compound, the GI50 (SK-MEL-28 melanoma) was 12400 nM, the TGI (SK-MEL-28 melanoma) was 24900 nM and the GI50 (PC-3 prostate) was 12.3 nM. For the same compound, the TGI (PC-3 prostate) was 36.3 nM, the GI50 (UO-31 renal) was 15.1 nM and the TGI (UO-31 renal) was 28.8 nM. The GI50 (SF-539 CNS) was 1600 nM and the TGI (SF-539 CNS) was 13700 nM.
